From patent publication US20220380314A1, “SUBSTITUTED, SATURATED AND UNSATURATED N-HETEROCYCLIC CARBOXAMIDES AND RELATED COMPOUNDS FOR THEIR USE IN THE TREATMENT OF MEDICAL DISORDERS” (Bial - R&D Investments, S.A., priority 2019, published 2022)
In brackets after ≈: the same amount, converted by molar mass.

Assays:
[1] = molecular target: T1, acid ceramidase (hACR) (Homo sapiens, UniProt Q13510); assay: Acid ceramidase inhibition, biochemical fluorescent assay with cell lysates overexpressing acid ceramidase, substrate Rbm14-12; conditions: cell lysates overexpressing acid ceramidase; 1 hr preincubation at RT; pH 4.5; substrate Rbm14-12 6.3 μM; read-out: hACR IC50
T1 construct: expressed in transfected cells; cell lysate used
T1 sequence (Q13510 143-395 limits assumed): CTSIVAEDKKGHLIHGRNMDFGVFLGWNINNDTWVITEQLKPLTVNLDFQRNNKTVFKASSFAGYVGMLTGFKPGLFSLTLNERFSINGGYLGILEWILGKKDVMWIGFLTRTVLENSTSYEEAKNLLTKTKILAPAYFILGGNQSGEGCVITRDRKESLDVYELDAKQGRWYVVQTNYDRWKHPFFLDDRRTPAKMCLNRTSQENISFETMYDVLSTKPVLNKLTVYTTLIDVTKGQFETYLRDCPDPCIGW
T1 sequence (Q13510 22-142 limits assumed): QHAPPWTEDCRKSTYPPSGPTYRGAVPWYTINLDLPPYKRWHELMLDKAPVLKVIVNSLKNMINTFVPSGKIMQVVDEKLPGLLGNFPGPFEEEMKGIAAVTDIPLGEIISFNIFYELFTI
How it was run: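 Enzyme source was lysate (10 µg protein) from cells overexpressing acid ceramidase, preincubated 1 hr at RT with compound dose series in 25 mM NaAc, 100 mM NaCl, pH 4.5. Rbm14-12 (6.3 μM final) reacted 1 hr at RT; stop buffer (methanol, NaIO4, glycine, pH 10.6) 1 hr, fluorescence ex360/em446; IC50 from four-parameter fit.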

[2] = Compound solubility in water; type: physicochemical

| Compound | IC50 [1] | solubility [2] |
| --- | --- | --- |
| CC1(C)CCc2c(N3CCOCC3)cccc2N1C(=O)NCCc1ccccc1 [Example 11, 2,2-Dimethyl-5-morpholino-N-phenethyl-3,4-dihydroquinoline-1(2H)-carboxamide] | 200 to 1000 nM | 8.1 µM (≈ 3.19 µg/mL) |
| CN1CC(c2ccc3c(c2)N(C(=O)NCc2ccccc2)C(C)(C)CC3)C1 [Example 65, N-benzyl-2,2-dimethyl-7-(1-methylazetidin-3-yl)-3,4-dihydroquinoline-1(2H)-carboxamide] | 200 to 1000 nM | 40.2 µM (≈ 14.6 µg/mL) |
| COc1ccc(C2COCC(C)(C)N2C(=O)NCC2CC2)cc1 (centres unmarked) [Example 144, N-(Cyclopropylmethyl)-5-(4-methoxyphenyl)-3,3-dimethylmorpholine-4-carboxamide] | < 200 nM | 97.8 µM (≈ 31.1 µg/mL) |
| COc1ccc(C2COCC(C)(C)N2C(=O)NCCOCC2CC2)cc1 (centres unmarked) [Example 157, N-[2-(Cyclopropylmethoxy)ethyl]-5-(4-methoxyphenyl)-3,3-dimethylmorpholine-4-carboxamide] | < 200 nM | > 100 µM |
| O=C(NCCCc1ccc(F)cc1)N1CCCCC12CCCC2 [Example 58, N-(3-(4-Fluorophenyl)propyl)-6-azaspiro[4.5]decane-6-carboxamide] | < 200 nM | 3 µM (≈ 0.955 µg/mL) |
| CN1CC(c2cccc3c2CCC(C)(C)N3C(=O)NCCc2ccccc2)C1 [Example 49] | 200 to 1000 nM | 35.3 µM (≈ 13.3 µg/mL) |
| CN1CCC(c2cccc3c2CCC(C)(C)N3C(=O)NCCc2ccccc2)CC1 [Example 2, 2,2-Dimethyl-5-(1-methylpiperidin-4-yl)-N-phenethyl-3,4-dihydroquinoline-1(2H)-carboxamide] | < 200 nM | 36.5 µM (≈ 14.8 µg/mL) |
| O=C(NCCCc1ccc(F)cc1F)N1CCCCC12CCCC2 [Example 59, N-(3-(2,4-difluorophenyl)propyl)-6-azaspiro[4.5]decane-6-carboxamide] | < 200 nM | 1.1 µM (≈ 0.37 µg/mL) |
| CC1(C)CC(Oc2ccccc2)CCN1C(=O)NCCCCc1ccccc1 (centres unmarked) [Example 89, 2,2-Dimethyl-4-phenoxy-N-(4-phenylbutyl)piperidine-1-carboxamide] | < 200 nM | 0.01 µM (≈ 0.00381 µg/mL) |
| CC1(C)CC2(CCCCO2)CCN1C(=O)NCCc1ccccc1 (centres unmarked) [Example 17, 8,8-Dimethyl-N-phenethyl-1-oxa-9-azaspiro[5.5]undecane-9-carboxamide] | 200 to 1000 nM | 28.5 µM (≈ 9.42 µg/mL) |
| CC1(C)CC(F)(F)CCN1C(=O)NCCCc1ccccc1 [Example 61, 4,4-Difluoro-2,2-dimethyl-N-(3-phenylpropyl)piperidine-1-carboxamide] | < 200 nM | 25.7 µM (≈ 7.98 µg/mL) |
| CC1(C)CCc2c(C3COC3)cccc2N1C(=O)NCCc1ccccc1 [Example 51] | 200 to 1000 nM | 0.9 µM (≈ 0.328 µg/mL) |
| CN1CC(c2ccc3c(c2)N(C(=O)NCCc2ccccc2)C(C)(C)CC3)C1 [Example 50] | < 200 nM | 32.2 µM (≈ 12.2 µg/mL) |
| CC1(C)CCCN1C(=O)NCCc1ccccc1 [Example 54, 2,2-Dimethyl-N-phenethylpyrrolidine-1-carboxamide] | > 1000 nM | 25.6 µM (≈ 6.31 µg/mL) |
| CC1(C)Cc2ccccc2N1C(=O)NCCc1ccccc1 [Example 67, 2,2-Dimethyl-N-phenethylindoline-1-carboxamide] | > 1000 nM | 8.3 µM (≈ 2.44 µg/mL) |
| CC1(C)CC(F)=CCN1C(=O)NCCCc1ccccc1 [Example 62, 4-fluoro-2,2-dimethyl-N-(3-phenylpropyl)-3,6-dihydropyridine-1(2H)-carboxamide] | > 1000 nM | 15 µM (≈ 4.36 µg/mL) |
| COc1ccc(C2COCC(C)(C)N2C(=O)NCCC(F)(F)F)cc1 (centres unmarked) [Example 153, 5-(4-Methoxyphenyl)-3,3-dimethyl-N-(3,3,3-trifluoropropyl)morpholine-4-carboxamide] | 200 to 1000 nM | 79.2 µM (≈ 28.5 µg/mL) |
| CCCCCNC(=O)N1C(c2ccc(OC)cc2)COCC1(C)C (centres unmarked) [Example 156, 5-(4-Methoxyphenyl)-3,3-dimethyl-N-pentylmorpholine-4-carboxamide] | < 200 nM | 91 µM (≈ 30.4 µg/mL) |
| CC1(C)CC(=O)c2ccccc2N1C(=O)NCCc1ccccc1 [Example 28, 2,2-Dimethyl-4-oxo-N-phenethyl-3,4-dihydroquinoline-1(2H)-carboxamide] | > 1000 nM | 3.1 µM (≈ 0.999 µg/mL) |
| COc1cccc2c1N(C(=O)NCCc1ccccc1)C(C)(C)CC2 [Example 68, 8-Methoxy-2,2-dimethyl-N-phenethyl-3,4-dihydroquinoline-1(2H)-carboxamide] | < 200 nM | 8.2 µM (≈ 2.78 µg/mL) |

| Compound | IC50 [1] | solubility [2] |
| --- | --- | --- |
| CC(C)CCNC(=O)N1CCN(c2ccccc2)CC1(C)C [Example 42, N-iso-Pentyl-2,2-dimethyl-4-phenylpiperazine-1-carboxamide] | > 1000 nM | 7 µM (≈ 2.12 µg/mL) |
| CC1(C)Cc2ccccc2CN1C(=O)NCCc1ccccc1 [Example 22, 3,3-Dimethyl-N-phenethyl-3,4-dihydroisoquinoline-2(1H)-carboxamide] | 200 to 1000 nM | 5.7 µM (≈ 1.76 µg/mL) |
| O=C(NCCCc1ccccc1)N1CCCC12CCCC2 [Example 57, N-(3-Phenylpropyl)-1-azaspiro[4.4]nonane-1-carboxamide] | > 1000 nM | 19.4 µM (≈ 5.56 µg/mL) |
| CC1(C)CC(N2CCCCC2)CCN1C(=O)NCCCCc1ccccc1 (centres unmarked) [Example 83, 2,2-Dimethyl-N-(4-phenylbutyl)-4-(1-piperidyl)piperidine-1-carboxamide] | < 200 nM | > 100 µM |
| CN1CCC(c2cccc3c2CN(C(=O)NCCc2ccccc2)C(C)(C)C3)CC1 [Example 20, 3,3-Dimethyl-8-(1-methylpiperidin-4-yl)-N-phenethyl-3,4-dihydroisoquinoline-2(1H)-carboxamide] | 200 to 1000 nM | 32.2 µM (≈ 13.1 µg/mL) |
| CC1(C)CC(F)(F)CCN1C(=O)NCCCC1(C(F)(F)F)CC1 [Example 72, 4,4-Difluoro-2,2-dimethyl-N-(3-(1-(trifluoromethyl)cyclopropyl)propyl)piperidine-1-carboxamide] | 200 to 1000 nM | 21.4 µM (≈ 7.33 µg/mL) |
| CN1CCN(C2CCN(C(=O)NCCc3ccccc3)C(C)(C)C2)CC1 (centres unmarked) [Example 26, 2,2-Dimethyl-4-(4-methylpiperazin-1-yl)-N-phenethylpiperidine-1-carboxamide] | > 1000 nM | 43.7 µM (≈ 15.7 µg/mL) |
| CC1(C)COCCN1C(=O)NCCc1ccccc1 [Example 53, 3,3-Dimethyl-N-phenethylmorpholine-4-carboxamide] | > 1000 nM | 25.6 µM (≈ 6.72 µg/mL) |
| CC1(C)CCc2ccccc2N1C(=O)NCCc1ccccc1 [Example 6, 2,2-Dimethyl-N-phenethyl-3,4-dihydroquinoline-1(2H)-carboxamide] | 200 to 1000 nM | 3.2 µM (≈ 0.987 µg/mL) |
| CC(C)CCNC(=O)N1CCC(Oc2ccccc2)CC1(C)C (centres unmarked) [Example 41, N-iso-Pentyl-2,2-dimethyl-4-phenoxypiperidine-1-carboxamide] | 200 to 1000 nM | 3.7 µM (≈ 1.18 µg/mL) |
| CN1CC(c2ccccc2)N(C(=O)NCCCCc2ccccc2)C(C)(C)C1 (centres unmarked) [Example 165, 2,2,4-Trimethyl-6-phenyl-N-(4-phenylbutyl)piperazine-1-carboxamide] | < 200 nM | 71.6 µM (≈ 27.2 µg/mL) |
| CC1(C)CCc2cccc(F)c2N1C(=O)NCCc1ccccc1 [Example 35, 8-Fluoro-2,2-dimethyl-N-phenethyl-3,4-dihydroquinoline-1(2H)-carboxamide] | 200 to 1000 nM | 6.02 µM (≈ 1.97 µg/mL) |
| CN1CCC(c2ccc3c(c2)CCC(C)(C)N3C(=O)NCCc2ccccc2)CC1 [Example 23, 2,2-Dimethyl-6-(1-methylpiperidin-4-yl)-N-phenethyl-3,4-dihydroquinoline-1(2H)-carboxamide] | 200 to 1000 nM | 33.6 µM (≈ 13.6 µg/mL) |
| CN1CC(N2CC(c3ccc4c(c3)N(C(=O)NCCc3ccccc3)C(C)(C)CC4)C2)C1 [Example 69, 2,2-Dimethyl-7-(1′-methyl-[1,3′-biazetidin]-3-yl)-N-phenethyl-3,4-dihydroquinoline-1(2H)-carboxamide] | > 1000 nM | 35.5 µM (≈ 15.4 µg/mL) |
| CC1(C)CCc2ccc(C3COC3)cc2N1C(=O)NCCc1ccccc1 [Example 52] | 200 to 1000 nM | 5 µM (≈ 1.82 µg/mL) |
| O=C(NCCc1ccccc1)N1CCCCC12CCC2 [Example 46, N-Phenethyl-5-azaspiro 3.5 nonane-5-carboxamide] | > 1000 nM | 17.5 µM (≈ 4.77 µg/mL) |
| CN1CCC(c2ccc3c(c2)CC(C)(C)N(C(=O)NCCc2ccccc2)C3)CC1 [Example 21, 3,3-Dimethyl-6-(1-methylpiperidin-4-yl)-N-phenethyl-3,4-dihydroisoquinoline-2(1H)-carboxamide] | > 1000 nM | 34.2 µM (≈ 13.9 µg/mL) |
| O=C(NCCCc1ccccc1)N1CCCCC12CCCC2 [Example 56, N-(3-Phenylpropyl)-6-azaspiro[4.5]decane-6-carboxamide] | < 200 nM | 4.9 µM (≈ 1.47 µg/mL) |
| CCCCCNC(=O)N1C(C)COCC1(C)C (centres unmarked) [Example 132, 3,3,5-Trimethyl-N-pentylmorpholine-4-carboxamide] | < 200 nM | 88.3 µM (≈ 21.4 µg/mL) |
| CC1(C)CCCCN1C(=O)NCCc1ccccc1 [Example 25, 2,2-Dimethyl-N-phenethylpiperidine-1-carboxamide] | 200 to 1000 nM | 23.2 µM (≈ 6.04 µg/mL) |
